# Data: US20250145601A1, “NOVEL BICYCLIC COMPOUNDS AS RAD51 INHIBITORS” (SATYA THERAPEUTICS, INC., priority 2022, published 2025)
# Tested on: MDA MB 231 cells
# Assay: Antiproliferation assay in MDA MB 231 cells (Cell Titer Glo)
# Format: cell-based
# Settings: Homo sapiens, MDA-MB-231, 216 h, MDAMB231 cell line, 9 day treatment, racemic compounds (Table 2)
# Protocol: Antiproliferation Assay in MDA MB 231 Cells MDA MB 231 cells were seeded in 96 well plate at a seeding density of 250 cells/well. The cells were allowed to settle overnight under standard incubator conditions (37° C., 5% CO2). Next day treatment with increasing dose of test compounds and reference compounds were done to the respective wells and the cells were further incubated under standard cell culture conditions for another 4 days. On the 5th day, media was replenished with fresh treatment and cells were incubated for a total of 9 day treatment period. On the day of termination, appropriate volume of Cell Titer Glo reagent was added to the treatment (and control) wells and the plates were kept on a plate shaker @300 RPM for 15 min. Luminiscence reading (RLU) was […] RLU is directly proportional to ATP content and is directly related to number of metabolically active cells in the respective well. Calculation: a. Blank Correction: RLU of the Wells Containing No Cells is Considered as Blank and Subtracted from all RLU of the Treated and Control Wells [formula]
row,SMILES,inhibition at 10 µM
1,"CCC(=O)N1N=C(c2c(C)c3ccsc3[nH]c2=O)CC1c1ccc(C)cc1Cl (centres unmarked) [Example 65, 5-(5-(2-chloro-4-methylphenyl)-1-propionyl-4,5-dihydro-1H-pyrazol-3-yl)-4-methylthieno[2,3-b]pyridin-6(7H)-one]",≥ 50%
2,"CCC(=O)N1N=C(c2c(C)c3ccsc3[nH]c2=O)CC1c1ccc(N2CCN(C)CC2)cc1 (centres unmarked) [Example 38, 4-methyl-5-(5-(4-(4-methylpiperazin-1-yl)phenyl)-1-propionyl-4,5-dihydro-1H-pyrazol-3-yl)thieno[2,3-b]pyridin-6(7H)-one]",≥ 50%
3,"CCC(=O)N1N=C(c2c(C)c3ccc(N4CCOCC4)nc3[nH]c2=O)CC1c1ccc(C)cc1 (centres unmarked) [Example 86, 4-methyl-7-morpholino-3-(1-propionyl-5-(p-tolyl)-4,5-dihydro-1H-pyrazol-3-yl)-1,8-naphthyridin-2(1H)-one]",< 50%
4,"COc1ccc(C2CC(c3c(C)c4cc(Cl)ccc4[nH]c3=O)=NN2C(=O)C2CCOC2)cc1 (centres unmarked) [Example 4, 6-chloro-3-(5-(4-methoxyphenyl)-1-(tetrahydrofuran-3-carbonyl)-4,5-dihydro-1H-pyrazol-3-yl)-4-methylquinolin-2(1H)-one]",≥ 50%
5,"CCC(=O)N1N=C(c2c(C)c3cccnc3[nH]c2=O)CC1c1ccc(OC)cc1 (centres unmarked) [Example 13, 3-(5-(4-Methoxyphenyl)-1-propionyl-4,5-dihydro-1H-pyrazol-3-yl)-4-methyl-1,8-naphthyridin-2(1H)-one]",≥ 50%
6,"CCC(=O)N1N=C(c2c(C)c3ccc(OCCOC)nc3[nH]c2=O)CC1c1ccc(C)cc1 (centres unmarked) [Example 87, 7-(2-methoxyethoxy)-4-methyl-3-(1-propionyl-5-(p-tolyl)-4,5-dihydro-1H-pyrazol-3-yl)-1,8-naphthyridin-2(1H)-one]",≥ 50%
7,"COc1ccc(C2CC(c3c(C)c4cc(Cl)ccc4[nH]c3=O)=NN2C(=O)C2CC2)cc1 (centres unmarked) [Example 2, 6-Chloro-3-(1-(cyclopropanecarbonyl)-5-(4-methoxyphenyl)-4,5-dihydro-1H-pyrazol-3-yl)-4-methylquinolin-2(1H)-one]",≥ 50%
8,"CCC(=O)N1N=C(c2c(C)c3ccsc3[nH]c2=O)CC1c1ccsc1 (racemic) [Example 33, 4-methyl-5-(1-propionyl-5-(thiophen-3-yl)-4,5-dihydro-1H-pyrazol-3-yl)thieno[2,3-b]pyridin-6(7H)-one]",< 50%
9,"CCC(=O)N1N=C(c2c(C)c3ccsc3[nH]c2=O)CC1c1ccc(=O)[nH]c1 (centres unmarked) [Example 26, 4-methyl-5-(5-(6-oxo-1,6-dihydropyridin-3-yl)-1-propionyl-4,5-dihydro-1H-pyrazol-3-yl)thieno[2,3-b]pyridin-6(7H)-one]",< 50%
10,"CCC(=O)N1N=C(c2c(C)c3ccsc3[nH]c2=O)CC1c1ccc(OC)s1 (centres unmarked) [Example 29, 5-(5-(5-methoxythiophen-2-yl)-1-propionyl-4,5-dihydro-1H-pyrazol-3-yl)-4-methylthieno[2,3-b]pyridin-6(7H)-one]",≥ 50%
11,"CCC(=O)N1N=C(c2c(C)c3ccsc3[nH]c2=O)CC1c1cnc(C)c(C)c1 (centres unmarked) [Example 54, 5-(5-(5,6-dimethylpyridin-3-yl)-1-propionyl-4,5-dihydro-1H-pyrazol-3-yl)-4-methylthieno[2,3-b]pyridin-6(7H)-one]",≥ 50%
12,"CCC(=O)N1N=C(c2c(C)c3ccc(Cl)cc3[nH]c2=O)CC1c1ccc(C)cc1 (racemic) [Example 80, 7-chloro-4-methyl-3-(1-propionyl-5-(p-tolyl)-4,5-dihydro-1H-pyrazol-3-yl)quinolin-2(1H)-one]",≥ 50%

# Same assay, conditions: Homo sapiens, MDA-MB-231, 216 h, MDAMB231 cell line, 9 day treatment, separated enantiomers A/B (Table 3)
row,SMILES,inhibition at 10 µM
1,"CCC(=O)N1N=C(c2c(C)c3ccc(Cl)cc3[nH]c2=O)CC1c1ccc(C)cc1 (single isomer, unassigned) [Example 80A]",< 50%

# Same assay, conditions: MDAMB231 cell line, 9 day treatment, separated enantiomers A/B (Table 3), 10 µM
row,SMILES,% inhibition @ 10 μM
1,"CCC(=O)N1N=C(c2c(C)c3ccc(Cl)cc3[nH]c2=O)CC1c1ccc(C)cc1 (single isomer, unassigned) [Example 80B]",+ (≥50% +)
